# Patent US20170152239A1, “BENZAMIDE AND HETEROBENZAMIDE COMPOUNDS” (PFIZER INC., priority 2012, published 2017)
# Read-outs that look alike come from different tables or passages of the source.
# Assays:
# [1] = molecular target: WT EZH2 (EZH2 4 protein complex: EZH2, EED, SUZ12, RbAp48) (Homo sapiens, UniProt O75530+Q09028+Q15022+Q15910); assay: WT EZH2 nucleosome assay; type: biochemical
# In short: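 Radiometric methyltransferase assay: 5 nM EZH2 four-protein complex, 1.5 μM 3H-SAM, 25 μg/mL HeLa oligonucleosomes, 50 nM recombinant H1 in 100 mM Tris pH 8.5, 4 mM DTT, 0.01% Tween-20. 60 min reaction, TCA quench, filter capture, scintillation counting; IC50 from 11-point 4-parameter fit; % effect at 20 μM.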
# [2] = molecular target: EZH2PRC2 mutant Y641N (Homo sapiens, UniProt Q15910, Y641N); assay: EZH2PRC2 mutant Y641N nucleosome assay; type: biochemical; conditions: read-out: EZH2PCR2 Mutant Y641N IC50
# EZH2PRC2 mutant Y641N, sequence (Q15910 whole entry Y641N): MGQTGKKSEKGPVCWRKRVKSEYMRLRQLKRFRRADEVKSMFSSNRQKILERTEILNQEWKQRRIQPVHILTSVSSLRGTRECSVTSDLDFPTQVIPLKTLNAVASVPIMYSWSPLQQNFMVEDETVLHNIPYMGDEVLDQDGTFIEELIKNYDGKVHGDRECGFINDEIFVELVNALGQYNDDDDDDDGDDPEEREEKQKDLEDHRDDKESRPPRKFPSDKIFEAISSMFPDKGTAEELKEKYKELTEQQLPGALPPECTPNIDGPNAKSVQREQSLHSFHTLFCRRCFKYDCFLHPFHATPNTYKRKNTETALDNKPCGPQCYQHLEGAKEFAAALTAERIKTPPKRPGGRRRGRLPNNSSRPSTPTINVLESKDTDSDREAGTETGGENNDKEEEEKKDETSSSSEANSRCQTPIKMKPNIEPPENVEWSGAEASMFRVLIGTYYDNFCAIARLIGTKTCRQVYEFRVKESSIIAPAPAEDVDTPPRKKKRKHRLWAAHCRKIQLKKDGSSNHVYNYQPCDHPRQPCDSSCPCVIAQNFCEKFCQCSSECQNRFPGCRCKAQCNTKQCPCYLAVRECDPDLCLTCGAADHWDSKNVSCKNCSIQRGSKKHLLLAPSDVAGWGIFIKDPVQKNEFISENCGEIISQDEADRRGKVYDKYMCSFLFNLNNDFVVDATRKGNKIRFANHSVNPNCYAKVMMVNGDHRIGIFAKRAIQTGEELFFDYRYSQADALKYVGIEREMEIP
# EZH2PRC2 mutant Y641N, sequence (O75530 whole entry partner): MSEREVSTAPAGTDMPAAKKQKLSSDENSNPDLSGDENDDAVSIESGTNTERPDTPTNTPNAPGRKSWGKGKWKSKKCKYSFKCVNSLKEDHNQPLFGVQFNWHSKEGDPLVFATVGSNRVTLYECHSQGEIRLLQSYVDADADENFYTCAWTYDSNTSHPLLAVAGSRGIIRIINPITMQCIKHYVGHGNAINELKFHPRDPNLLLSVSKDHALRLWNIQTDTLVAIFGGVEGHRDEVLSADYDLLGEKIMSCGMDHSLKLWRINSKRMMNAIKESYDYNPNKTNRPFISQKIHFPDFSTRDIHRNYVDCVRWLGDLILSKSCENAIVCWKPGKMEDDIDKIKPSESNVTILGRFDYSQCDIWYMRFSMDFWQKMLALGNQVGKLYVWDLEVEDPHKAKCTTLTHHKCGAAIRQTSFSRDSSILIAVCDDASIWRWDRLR
# EZH2PRC2 mutant Y641N, sequence (Q15022 whole entry partner): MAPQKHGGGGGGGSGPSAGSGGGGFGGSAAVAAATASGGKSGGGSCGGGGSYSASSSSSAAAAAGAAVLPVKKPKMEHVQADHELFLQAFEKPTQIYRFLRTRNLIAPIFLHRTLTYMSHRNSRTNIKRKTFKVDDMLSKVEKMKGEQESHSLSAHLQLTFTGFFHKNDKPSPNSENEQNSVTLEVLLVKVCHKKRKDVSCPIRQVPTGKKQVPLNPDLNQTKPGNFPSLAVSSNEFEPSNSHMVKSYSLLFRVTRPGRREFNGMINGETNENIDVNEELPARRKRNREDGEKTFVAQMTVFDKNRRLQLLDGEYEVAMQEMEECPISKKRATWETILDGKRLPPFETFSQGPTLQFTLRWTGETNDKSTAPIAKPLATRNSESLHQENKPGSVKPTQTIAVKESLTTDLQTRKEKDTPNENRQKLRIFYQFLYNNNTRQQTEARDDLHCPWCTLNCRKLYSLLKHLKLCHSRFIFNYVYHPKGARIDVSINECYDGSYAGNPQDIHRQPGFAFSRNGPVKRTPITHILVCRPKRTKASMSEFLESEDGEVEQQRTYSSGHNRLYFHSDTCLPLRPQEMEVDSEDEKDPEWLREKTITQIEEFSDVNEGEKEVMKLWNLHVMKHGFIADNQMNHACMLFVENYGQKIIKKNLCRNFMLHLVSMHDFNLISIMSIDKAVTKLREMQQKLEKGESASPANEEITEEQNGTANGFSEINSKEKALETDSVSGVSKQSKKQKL
# EZH2PRC2 mutant Y641N, sequence (Q09028 whole entry partner): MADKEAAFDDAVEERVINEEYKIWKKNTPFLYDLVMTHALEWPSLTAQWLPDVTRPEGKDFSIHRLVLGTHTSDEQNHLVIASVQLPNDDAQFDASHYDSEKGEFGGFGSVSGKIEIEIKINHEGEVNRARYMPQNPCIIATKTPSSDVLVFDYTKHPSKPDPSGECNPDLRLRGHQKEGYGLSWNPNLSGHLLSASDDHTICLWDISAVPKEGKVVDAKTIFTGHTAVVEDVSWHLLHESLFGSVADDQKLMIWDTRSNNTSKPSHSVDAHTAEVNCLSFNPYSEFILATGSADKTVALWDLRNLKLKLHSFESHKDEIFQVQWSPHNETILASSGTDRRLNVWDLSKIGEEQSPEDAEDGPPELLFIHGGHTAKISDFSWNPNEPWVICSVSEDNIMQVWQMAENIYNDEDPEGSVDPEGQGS
# Method: Nucleosome Assay Protocol:
# A. Compound preparation • 1. Prepare 10 mM stock solutions in 100% DMSO from solid material • 2. Serial dilute 10 mM compound stocks either 2 or 3-fold in 100% DMSO to generate compounds for 11 point dose response
# B. Reagent preparation • 1. Prepare 1× assay buffer containing 100 mM Tris pH 8.5, 4 mM DTT and 0.01% Tween-20 • 2. Dilute purified HeLA oligonucleosomes and recombinant histone H1 (New England Biolabs) in assay buffer to 1.67×. • 3. Dilute EZH2 4 protein complex (EZH2, EED, SUZ12, RbAp48) to 3.5× in assay buffer • 4. Prepare 10×^3H SAM solution in assay buffer using 0.94 μCi/well of radioactive SAM (Perkin Elmer) and sufficient non-labeled SAM (Sigma) for 1.5 μM final concentration. • 5. Dilute TCA to 20% in DI water
# C. Enzyme reaction • 1. Final reaction conditions are 5 nM EZH2 4-protein complex, 1.5 μM SAM, 25 μg/mL oligonucleosomes, 50 nM rH1 in a 50 μl reaction volume. • 2. Add 1 μl of diluted compound to the assay plate (96-well V-bottom polypropylene plates) or 1 μl of DMSO for control wells. • 3. Add 30 μl of nucleosomes to the assay plate • 4. Add 14 μl of EZH2 4 protein complex to the assay plate • 5. Add 5 μl of ^3H SAM to start the reaction. • 6. Stop the reaction after 60 minutes with the addition of 100 μl of 20% TCA • 7. Transfer 150 μl of quenched reaction into a prepared filterplate (Millipore #MSIPN4B10) • 8. Apply vacuum to the filterplate to filter the reaction mix through the membrane. • 9. Wash the filterplate with 8×200 μl of PBS, blot dry and dry in an oven for 30 minutes • 10. Add 50 μl of microscint-20 scintillation fluid (Perkin Elmer) to each well, wait 30 minutes and count on a liquid scintillation counter.
# D. Data analysis • 1. IC50 values were determined by fitting the data to a 4-parameter IC50 equation using proprietary curve fitting software.
# Wild type (WT) EZH2% Effect at 20 μM and IC50 values (μM) generated in WT EZH2 or EZH2PRC2 mutant Y641N nucleosome assays are provided in Table 3 below. A blank entry in the table indicates the data was not generated in that assay.
# [3] = nucleosome assay, 5 nM EZH2 4-protein complex, 1.5 μM SAM, read-out: WT EZH2 IC50
# WT EZH2 (EZH2 4 protein complex: EZH2, EED, SUZ12, RbAp48), sequence (Q15910 whole entry): as the sequence (Q15910 whole entry Y641N) above, with N641Y counted along it
# WT EZH2 (EZH2 4 protein complex: EZH2, EED, SUZ12, RbAp48), sequence (O75530 whole entry partner): as the sequence (O75530 whole entry partner) above
# WT EZH2 (EZH2 4 protein complex: EZH2, EED, SUZ12, RbAp48), sequence (Q15022 whole entry partner): as the sequence (Q15022 whole entry partner) above
# WT EZH2 (EZH2 4 protein complex: EZH2, EED, SUZ12, RbAp48), sequence (Q09028 whole entry partner): as the sequence (Q09028 whole entry partner) above
Structure (SMILES),"IC50 [1, 3]",IC50 [2],IC50 [1]
"Cc1cc(C)c(CNC(=O)c2cccc(-c3ccnn3C)c2C)c(=O)[nH]1 [Example 2, N-[(4,6-dimethyl-2-oxo-1,2-dihydropyridin-3-yl)methyl]-2-methyl-3-(1-methyl-1H-pyrazol-5-yl)benzamide]",340 nM,5530 nM,
"CC(=O)N1C2CCC1c1cc(-c3cc(C(=O)NCc4c(C)cc(C)[nH]c4=O)c(C)c(-c4ccnn4C)c3)ccc12 (stereo not drawn) [Example 6, 5-[9-acetyl-1,2,3,4-tetrahydro-1,4-epiminonaphthalene-6-yl]-N-[(4,6-dimethyl-2-oxo-1,2-dihydropyridin-3-yl)methyl]-2-methyl-3-(1-methyl-1H-pyrazol-5-yl)benzamide]",22 nM,820 nM,
"Cc1cc(C)c(CNC(=O)c2cc(-c3cnc(N(C)C)nc3)cc(-c3ccnn3C)c2C)c(=O)[nH]1 [Example 13, 5-[2-(dimethylamino)pyrimidin-5-yl]-N-[(4,6-dimethyl-2-oxo-1,2-dihydropyridin-3-yl)methyl]-2-methyl-3-(1-methyl-1H-pyrazol-5-yl)benzamide]",38 nM,620 nM,
"CNc1ncc(-c2cc(C(=O)NCc3c(C)cc(C)[nH]c3=O)c(C)c(-c3c(C)cnn3C)c2)cn1 [Example 15, N-[(4,6-dimethyl-2-oxo-1,2-dihydropyridin-3-yl)methyl]-3-(1,4-dimethyl-1H-pyrazol-5-yl)-2-methyl-5-[2-(methylamino)pyrimidin-5-yl]benzamide]",,300 nM,35 nM
"Cc1cc(C)c(CNC(=O)c2cc(-c3cnc(N4CC(F)C4)nc3)cc(-c3c(C)cnn3C)c2C)c(=O)[nH]1 [Example 24, N-[(4,6-dimethyl-2-oxo-1,2-dihydropyridin-3-yl)methyl]-3-(1,4-dimethyl-1H-pyrazol-5-yl)-5-[2-(3-fluoroazetidin-1-yl)pyrimidin-5-yl]-2-methylbenzamide]",22 nM,550 nM,
"Cc1cc(C)c(CNC(=O)c2ncnc(N3CCN(c4ncccn4)C[C@@H]3C)c2C)c(=O)[nH]1 [Example 31, (S)—N-((4,6-dimethyl-2-oxo-1,2-dihydropyridin-3-yl)methyl)-5-methyl-6-(2-methyl-4-(pyrimidin-2-yl)piperazin-1-yl)pyrimidine-4-carboxamide]",140 nM,1310 nM,
"Cc1cc(C)c(CNC(=O)c2nc(Cl)nc(N3CCN(C)C[C@@H]3C)c2C)c(=O)[nH]1 [Example 36, 2-chloro-N-[(4,6-dimethyl-2-oxo-1,2-dihydropyridin-3-yl)methyl]-6-[(2S)-2,4-dimethylpiperazin-1-yl]-5-methylpyrimidine-4-carboxamide]",2080 nM,13000 nM,
"Cc1cc(C)c(CNC(=O)c2ncnc(N3CC[C@H]4C[C@H]43)c2C)c(=O)[nH]1 [Example 136, 6-[(1R,5S)-2-azabicyclo[3.1.0]hex-2-yl]-N-[(4,6-dimethyl-2-oxo-1,2-dihydropyridin-3-yl)methyl]-5-methyl-pyrimidine-4-carboxamide]",161000 nM,,
"CC(C)Oc1cccc(C(=O)NCc2ccc[nH]c2=O)c1Cl [Example 139, 2-chloro-3-isopropoxy-N-[(2-oxo-1,2-dihydropyridin-3-yl)methyl]benz-amide]",> 200000 nM,,
"COc1ccc(OC)c(C(=O)NCc2c(C)cc(C)[nH]c2=O)c1OC [Example 140, N-[(4,6-dimethyl-2-oxo-1,2-dihydropyridin-3-yl)methyl]-2,3,6-trimethoxy-benzamide]",> 200000 nM,,
"Cc1ccc(CNC(=O)c2nc(C3CC3)nc(-c3ccnn3C)c2C)c(=O)[nH]1 [Example 141, 2-cyclopropyl-5-methyl-N-[(6-methyl-2-oxo-1,2-dihydropyridin-3-yl)methyl]-6-(1-methyl-1H-pyrazol-5-yl)pyrimidine-4-carboxamide]",> 200000 nM,,
"Cc1cc(C(F)(F)F)[nH]c(=O)c1CNC(=O)c1cc(Cl)cc(-c2ccnn2C)c1C [Example 142, 5-chloro-2-methyl-N-{[4-methyl-2-oxo-6-(trifluoromethyl)-1,2-dihydropyridin-3-yl]methyl}-3-(1-methyl-1H-pyrazol-5-yl)benzamide]",> 200000 nM,,
"CC(=O)N[C@H]1CCN(c2ncnc(C(=O)NCc3c(C)cc(C)[nH]c3=O)c2C)C1 [Example 143, 6-[(3S)-3-azetamido-pyrrolidin-1-yl]-N-[(4,6-dimethyl-2-oxo-1,2-dihydropyridin-3-yl)methyl]-5-methylpyrimidine-4-carboxamide]",> 200000 nM,,
"Cc1cc(C)c(CNC(=O)c2ncnc(N3CCC[C@@H]3c3ccccn3)c2C)c(=O)[nH]1 [Example 144, N-[(4,6-dimethyl-2-oxo-1,2-dihydropyridin-3-yl)methyl]-5-methyl-6-[(2R)-2-pyridin-2-ylpyrrolidin-1-yl]pyrimidine-4-carboxamide]",> 200000 nM,,
"Cc1noc([C@H]2CCCN2c2ncnc(C(=O)NCc3c(C)cc(C)[nH]c3=O)c2C)n1 [Example 146, N-[(4,6-dimethyl-2-oxo-1,2-dihydropyridin-3-yl)methyl]-5-methyl-6-[(2R)-2-(3-methyl-1,2,4-oxadiazol-5-yl)pyrrolidin-1-yl]pyrimidine-4-carboxamide]",> 200000 nM,,
"CCn1ncc(C)c1-c1cccc(C(=O)NCc2c(C)c(Cl)c(C)[nH]c2=O)c1C [Example 148, N-[(5-chloro-4,6-dimethyl-2-oxo-1,2-dihydropyridin-3-yl)methyl]-3-(1-ethyl-4-methyl-1H-pyrazol-5-yl)-2-methyl-benzamide]",> 200000 nM,,

# Continued, values first:
"IC50 [1, 3]",IC50 [2],IC50 [1],Structure (SMILES)
27 nM,640 nM,,"CNc1ncc(-c2cc(C(=O)NCc3c(C)cc(C)[nH]c3=O)c(C)c(-c3ccnn3C)c2)cn1 [Example 14, N-[(4,6-dimethyl-2-oxo-1,2-dihydropyridin-3-yl)methyl]-2-methyl-5-[2-(methylamino)pyrimidin-5-yl]-3-(1-methyl-1H-pyrazol-5-yl)benzamide]"
84 nM,1330 nM,,"Cc1cc(C)c(CNC(=O)c2cc(-c3cnc(N)nc3)cc(-c3ccnn3C)c2C)c(=O)[nH]1 [Example 16, 5-(2-aminopyrimidin-5-yl)-N-[(4,6-dimethyl-2-oxo-1,2-dihydropyridin-3-yl)methyl]-2-methyl-3-(1-methyl-1H-pyrazol-5-yl)benzamide]"
27 nM,750 nM,,"Cc1cc(C)c(CNC(=O)c2cc(-c3cnc(N4C[C@@H]5C[C@H]4CO5)nc3)cc(-c3c(C)cnn3C)c2C)c(=O)[nH]1 [Example 22, N-[(4,6-dimethyl-2-oxo-1,2-dihydropyridin-3-yl)methyl]-3-(1,4-dimethyl-1H-pyrazol-5-yl)-2-methyl-5-{2-[(1S,4S)-2-oxa-5-azabicyclo[2.2.1]hept-5-yl]pyrimidin-5-yl}benzamide]"
290 nM,5150 nM,,"CCCc1cc(C)[nH]c(=O)c1CNC(=O)c1cc(-c2cnn(C)c2)cc(OC(C)C)c1Cl [Example 27, 2-chloro-3-isopropoxy-N-[(6-methyl-2-oxo-4-propyl-1,2-dihydropyridin-3-yl)methyl]-5-(1-methyl-1H-pyrazol-4-yl)benzamide]"
42 nM,350 nM,,"Cc1cc(C)c(CNC(=O)c2cc(-c3ccc4c(c3)CS(=O)(=O)C4)cc(-c3ccnn3C)c2C)c(=O)[nH]1 [Example 35, N-[(4,6-dimethyl-2-oxo-1,2-dihydropyridin-3-yl)methyl]-5-(2,2-dioxido-1,3-dihydro-2-benzothien-5-yl)-2-methyl-3-(1-methyl-1H-pyrazol-5-yl)benzamide]"
1190 nM,6250 nM,,"Cc1cc(C)c(CNC(=O)c2nc(Cl)nc(N3CCOC[C@@H]3C)c2C)c(=O)[nH]1 [Example 37, 2-chloro-N-[(4,6-dimethyl-2-oxo-1,2-dihydropyridin-3-yl)methyl]-5-methyl-6-[(3S)-3-methyl-morpholin-4-yl]pyrimidine-4-carboxamide]"
> 200000 nM,,,"Cc1cc(C)c(CNC(=O)c2ncnc(N3CCC[C@@H]3C(N)=O)c2C)c(=O)[nH]1 [Example 145, 6-[(2R)-2-carbamoyl-pyrrolidin-1-yl]-N-[(4,6-dimethyl-2-oxo-1,2-dihydropyridin-3-yl)methyl]-5-methylpyrimi-dine-4-carboxamide]"
